The source of these data is patent US20160303095A1, “METHODS OF TREATING HEPATITIS B VIRUS” (Gilead Sciences, Inc., priority 2015, published 2016).

The target in data set [1] is T1, KDM4E (Homo sapiens, UniProt B2RXH2).
T1 construct: host or cells: Sf9 cells
T1 sequence (B2RXH2 1-506): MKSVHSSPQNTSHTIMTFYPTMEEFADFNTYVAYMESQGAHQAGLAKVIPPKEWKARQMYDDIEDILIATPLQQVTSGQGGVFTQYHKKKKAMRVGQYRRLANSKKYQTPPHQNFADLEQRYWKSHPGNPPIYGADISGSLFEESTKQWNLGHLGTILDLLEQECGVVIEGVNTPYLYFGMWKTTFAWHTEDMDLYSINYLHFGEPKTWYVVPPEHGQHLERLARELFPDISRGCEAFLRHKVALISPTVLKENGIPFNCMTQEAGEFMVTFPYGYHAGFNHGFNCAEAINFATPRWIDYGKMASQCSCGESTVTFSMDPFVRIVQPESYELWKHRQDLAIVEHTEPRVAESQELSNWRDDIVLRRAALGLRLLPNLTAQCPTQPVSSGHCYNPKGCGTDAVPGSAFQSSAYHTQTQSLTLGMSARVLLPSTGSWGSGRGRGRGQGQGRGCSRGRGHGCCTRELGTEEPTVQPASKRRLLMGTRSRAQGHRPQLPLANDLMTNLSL
Description: Biochemical KDM inhibition assay (LANCE), KDM4E. The settings on record: read-out: Biochemical IC50 KDM 4E.

Data set [2] deals with T2, KDM5B (Homo sapiens, UniProt Q9UGL1).
T2 construct: host or cells: Sf9 cells
In words: Biochemical KDM inhibition assay (LANCE), KDM5B. To be noted: read-out: Biochemical IC50 KDM 5B. As to the method:
(§1) Representative compounds were characterized for their inhibition of KDM5 using biotinylated histone substrates. Inhibition was measured in vitro (CEREP Poitier, Le Bois l'Evêque, France) following experimental conditions described in Table 2. Briefly, the test compound, reference compound or water (control) was mixed with about 2-20 ng of recombinant, Human enzymes expressed in Sf9 cells in a buffer containing 45 mM Hepes/Tris (pH 7), 5 μM FAS, 100 μM ascorbic acid, 10 μM 2-oxoglutarate, 0.01% Tween 20 and 0.01% BSA. Thereafter, the reaction was initiated by adding the biotin-labeled substrate, and the mixture was incubated for 10-30 min at room temperature. For basal control measurements, the enzyme was omitted from the reaction mixture. Following incubation the reaction was stopped by adding 1 mM EDTA. After 5 min, the anti-methyl histone antibody labeled with europium chelate and the Ulight streptavidine (Perkin Elmer Waltham, Mass.) were added. After 60 min more, the fluorescence transfer was measured at λex=320 nm and λem=620 and λem=665 nm using a microplate reader (Envision, Perkin Elmer) (LANCE). The enzyme activity was determined by dividing the signal measured at λem=665 nm by that measured at 620 nm (ratio).

Data set [3] addresses KDM5A (Homo sapiens, UniProt P29375). Description: Biochemical KDM inhibition assay (LANCE), KDM5A. To be noted: read-out: Biochemical IC50 KDM 5A. As to the method:
as §1

The nature of data set [4]: Alamar Blue cell viability assay. To be noted: human. It counts as cell-based. As to the method:
Alamar Blue cell viability reagent (Cat#DAL1100 Life Technologies, Chicago, Ill.) was diluted 1 to 10 in Maintenance Media and added to the cells. Cells were incubated for 4 h at 37° C. and the fluorescence signal, which is proportional to the number of live cells, was read using a fluorimeter with excitation/emission spectra set at 560/590 nm, respectively. Data were converted into percentages of the untreated control and non-linear regression was performed to calculate CC50 values.
PHH were plated in collagen coated tissue culture plates in Plating Media and after 4-hour incubation at 37° C., cells were switched to Maintenance Media. On the next day, the cells were infected with 500 genome equivalents per cell of Genotype-A clinical isolate 21P (ProteoGenex, Culver City, Calif.) in 100 μl Maintenance Media supplemented with 4% PEG 8000 (Cat#V3011 Promega, Madison, Wis.). After an overnight incubation the inoculum was removed and the cells were washed three times with William's Media E and maintained in Maintenance Media. […] Following the transfection, the cells were incubated at 37° C. in a humidified incubator and media was changed every 3-4 days. The assay was terminated on day 14 post infection and cell viability was assessed by Alamar Blue. The collected medium was used for determination of HBsAg and HBeAg levels by MSD ELISA while cells were processed for determination of HBV RNA using qPCR.

The target of data set [5] is T3, KDM4C (Homo sapiens, UniProt Q9H3R0).
T3 sequence (Q9H3R0 1-1056): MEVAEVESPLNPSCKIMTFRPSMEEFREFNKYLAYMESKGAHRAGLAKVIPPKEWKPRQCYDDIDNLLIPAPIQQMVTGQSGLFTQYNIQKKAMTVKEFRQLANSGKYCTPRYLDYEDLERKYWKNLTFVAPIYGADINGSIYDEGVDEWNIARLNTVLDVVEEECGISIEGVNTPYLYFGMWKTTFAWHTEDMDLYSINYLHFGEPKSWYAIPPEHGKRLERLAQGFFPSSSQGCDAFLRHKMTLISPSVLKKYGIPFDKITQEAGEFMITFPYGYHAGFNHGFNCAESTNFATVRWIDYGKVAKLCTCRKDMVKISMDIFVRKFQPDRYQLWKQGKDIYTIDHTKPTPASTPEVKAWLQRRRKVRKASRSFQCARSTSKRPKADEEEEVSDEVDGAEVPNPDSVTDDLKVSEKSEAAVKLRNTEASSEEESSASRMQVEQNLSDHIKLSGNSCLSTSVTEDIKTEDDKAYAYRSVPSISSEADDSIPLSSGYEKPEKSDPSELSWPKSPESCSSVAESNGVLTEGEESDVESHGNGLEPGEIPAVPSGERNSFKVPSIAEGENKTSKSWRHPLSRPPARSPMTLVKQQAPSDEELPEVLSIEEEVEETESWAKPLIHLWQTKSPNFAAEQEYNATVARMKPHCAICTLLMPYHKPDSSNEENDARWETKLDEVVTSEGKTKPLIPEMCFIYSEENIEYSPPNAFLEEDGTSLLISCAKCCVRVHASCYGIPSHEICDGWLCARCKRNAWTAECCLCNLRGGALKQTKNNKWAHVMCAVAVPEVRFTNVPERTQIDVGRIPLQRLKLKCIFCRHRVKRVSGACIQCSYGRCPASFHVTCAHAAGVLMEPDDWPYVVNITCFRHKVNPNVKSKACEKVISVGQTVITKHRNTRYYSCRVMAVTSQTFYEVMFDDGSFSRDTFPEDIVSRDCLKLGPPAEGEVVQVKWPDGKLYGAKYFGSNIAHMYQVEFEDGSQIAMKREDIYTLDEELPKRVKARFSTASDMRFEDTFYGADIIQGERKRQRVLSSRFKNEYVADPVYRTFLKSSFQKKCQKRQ
In words: Biochemical KDM inhibition assay (LANCE), KDM4C. To be noted: read-out: Biochemical IC50 KDM 4C.

Data set [6] concerns the target T4, KDM5C (Homo sapiens, UniProt P41229).
T4 construct: host or cells: Sf9 cells
Description: Biochemical KDM inhibition assay (LANCE), KDM5C. To be noted: read-out: Biochemical IC50 KDM 5C. On the procedure: as §1

The target in data set [7] is T5, KDM5D (Homo sapiens, UniProt Q9BY66).
T5 construct: host or cells: Sf9 cells
In words: Biochemical KDM inhibition assay (LANCE), KDM5D. To be noted: read-out: Biochemical IC50 KDM 5D. As to the method: as §1

Where only a bound is given, the exact number is not on record here.

T5 sequence (Q9BY66 whole entry): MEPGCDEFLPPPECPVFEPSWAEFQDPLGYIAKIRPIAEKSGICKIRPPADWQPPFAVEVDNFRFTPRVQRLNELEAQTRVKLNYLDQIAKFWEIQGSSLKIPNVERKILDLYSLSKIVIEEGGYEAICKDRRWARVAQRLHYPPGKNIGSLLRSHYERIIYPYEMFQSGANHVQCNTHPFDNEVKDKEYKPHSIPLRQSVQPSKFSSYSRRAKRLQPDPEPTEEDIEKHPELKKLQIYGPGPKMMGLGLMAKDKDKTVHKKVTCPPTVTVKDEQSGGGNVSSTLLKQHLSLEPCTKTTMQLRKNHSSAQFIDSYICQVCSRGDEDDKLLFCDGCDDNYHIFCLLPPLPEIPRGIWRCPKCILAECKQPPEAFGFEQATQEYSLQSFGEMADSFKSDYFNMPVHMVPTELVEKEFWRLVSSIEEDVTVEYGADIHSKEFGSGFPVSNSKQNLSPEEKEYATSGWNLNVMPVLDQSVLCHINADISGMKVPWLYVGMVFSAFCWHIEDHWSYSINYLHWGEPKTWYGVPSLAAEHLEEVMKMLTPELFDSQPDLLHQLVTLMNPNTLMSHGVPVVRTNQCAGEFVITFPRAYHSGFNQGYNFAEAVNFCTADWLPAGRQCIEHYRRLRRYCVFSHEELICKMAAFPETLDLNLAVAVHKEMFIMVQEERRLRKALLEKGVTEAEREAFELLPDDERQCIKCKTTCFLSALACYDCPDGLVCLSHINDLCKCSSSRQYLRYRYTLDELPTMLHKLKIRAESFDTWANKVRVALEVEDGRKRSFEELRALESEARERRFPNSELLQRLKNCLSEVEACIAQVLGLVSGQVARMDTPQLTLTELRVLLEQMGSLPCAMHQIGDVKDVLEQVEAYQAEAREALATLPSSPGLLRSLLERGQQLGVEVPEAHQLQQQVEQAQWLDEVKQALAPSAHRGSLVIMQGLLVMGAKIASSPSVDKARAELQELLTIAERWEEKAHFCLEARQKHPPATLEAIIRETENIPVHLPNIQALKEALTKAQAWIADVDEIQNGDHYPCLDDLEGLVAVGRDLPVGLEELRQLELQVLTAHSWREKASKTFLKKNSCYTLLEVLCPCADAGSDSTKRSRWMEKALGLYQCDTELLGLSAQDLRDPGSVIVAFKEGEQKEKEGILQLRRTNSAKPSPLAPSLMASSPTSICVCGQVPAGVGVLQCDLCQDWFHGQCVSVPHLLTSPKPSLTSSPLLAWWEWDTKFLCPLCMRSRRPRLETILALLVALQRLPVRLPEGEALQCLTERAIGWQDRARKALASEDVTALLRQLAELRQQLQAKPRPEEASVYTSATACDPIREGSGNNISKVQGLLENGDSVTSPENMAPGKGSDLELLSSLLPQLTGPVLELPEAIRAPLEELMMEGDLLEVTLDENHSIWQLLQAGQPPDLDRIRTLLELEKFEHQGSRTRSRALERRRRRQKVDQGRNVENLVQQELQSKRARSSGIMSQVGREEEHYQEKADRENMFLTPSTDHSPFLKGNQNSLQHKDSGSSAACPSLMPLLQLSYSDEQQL
T4 sequence (P41229 whole entry): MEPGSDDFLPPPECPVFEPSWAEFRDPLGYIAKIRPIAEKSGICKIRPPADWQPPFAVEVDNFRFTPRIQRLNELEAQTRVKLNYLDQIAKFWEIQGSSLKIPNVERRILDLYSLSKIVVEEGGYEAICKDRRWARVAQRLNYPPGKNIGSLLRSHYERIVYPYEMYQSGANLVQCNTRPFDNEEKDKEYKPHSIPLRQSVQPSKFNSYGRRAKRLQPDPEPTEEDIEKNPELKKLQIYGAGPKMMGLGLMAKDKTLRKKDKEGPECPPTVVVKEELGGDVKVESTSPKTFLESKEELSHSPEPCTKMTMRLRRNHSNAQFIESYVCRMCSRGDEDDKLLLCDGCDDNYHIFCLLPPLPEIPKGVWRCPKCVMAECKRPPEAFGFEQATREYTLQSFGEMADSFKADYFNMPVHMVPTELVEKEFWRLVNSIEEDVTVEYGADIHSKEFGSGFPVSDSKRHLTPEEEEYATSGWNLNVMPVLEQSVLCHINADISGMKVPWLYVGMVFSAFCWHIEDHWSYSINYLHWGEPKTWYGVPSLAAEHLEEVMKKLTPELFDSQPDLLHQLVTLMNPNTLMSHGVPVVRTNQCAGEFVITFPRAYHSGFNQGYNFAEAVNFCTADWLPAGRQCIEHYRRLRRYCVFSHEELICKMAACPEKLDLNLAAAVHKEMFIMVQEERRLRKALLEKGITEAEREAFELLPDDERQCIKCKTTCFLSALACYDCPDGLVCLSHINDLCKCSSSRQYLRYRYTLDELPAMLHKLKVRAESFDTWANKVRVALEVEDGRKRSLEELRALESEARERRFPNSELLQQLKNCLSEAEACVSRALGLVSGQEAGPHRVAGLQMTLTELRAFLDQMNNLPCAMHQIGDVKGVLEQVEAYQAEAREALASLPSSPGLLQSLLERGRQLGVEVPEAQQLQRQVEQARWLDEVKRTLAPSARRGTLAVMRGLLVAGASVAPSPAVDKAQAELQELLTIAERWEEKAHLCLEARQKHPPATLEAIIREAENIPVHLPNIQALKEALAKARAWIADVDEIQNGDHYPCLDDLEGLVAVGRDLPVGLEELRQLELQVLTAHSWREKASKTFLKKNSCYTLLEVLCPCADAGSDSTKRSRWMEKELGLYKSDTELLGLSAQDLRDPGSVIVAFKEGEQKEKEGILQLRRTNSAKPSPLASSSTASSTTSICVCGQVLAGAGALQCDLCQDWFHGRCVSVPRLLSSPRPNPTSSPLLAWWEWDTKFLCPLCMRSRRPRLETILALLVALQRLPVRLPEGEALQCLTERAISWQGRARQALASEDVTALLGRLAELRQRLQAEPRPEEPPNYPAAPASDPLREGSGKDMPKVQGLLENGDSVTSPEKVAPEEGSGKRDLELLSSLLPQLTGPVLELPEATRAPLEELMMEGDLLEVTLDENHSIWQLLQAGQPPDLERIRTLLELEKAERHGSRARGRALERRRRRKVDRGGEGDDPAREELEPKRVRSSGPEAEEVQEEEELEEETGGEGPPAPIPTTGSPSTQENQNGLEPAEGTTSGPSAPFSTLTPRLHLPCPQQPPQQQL
Sequence of KDM5A (P29375 whole entry): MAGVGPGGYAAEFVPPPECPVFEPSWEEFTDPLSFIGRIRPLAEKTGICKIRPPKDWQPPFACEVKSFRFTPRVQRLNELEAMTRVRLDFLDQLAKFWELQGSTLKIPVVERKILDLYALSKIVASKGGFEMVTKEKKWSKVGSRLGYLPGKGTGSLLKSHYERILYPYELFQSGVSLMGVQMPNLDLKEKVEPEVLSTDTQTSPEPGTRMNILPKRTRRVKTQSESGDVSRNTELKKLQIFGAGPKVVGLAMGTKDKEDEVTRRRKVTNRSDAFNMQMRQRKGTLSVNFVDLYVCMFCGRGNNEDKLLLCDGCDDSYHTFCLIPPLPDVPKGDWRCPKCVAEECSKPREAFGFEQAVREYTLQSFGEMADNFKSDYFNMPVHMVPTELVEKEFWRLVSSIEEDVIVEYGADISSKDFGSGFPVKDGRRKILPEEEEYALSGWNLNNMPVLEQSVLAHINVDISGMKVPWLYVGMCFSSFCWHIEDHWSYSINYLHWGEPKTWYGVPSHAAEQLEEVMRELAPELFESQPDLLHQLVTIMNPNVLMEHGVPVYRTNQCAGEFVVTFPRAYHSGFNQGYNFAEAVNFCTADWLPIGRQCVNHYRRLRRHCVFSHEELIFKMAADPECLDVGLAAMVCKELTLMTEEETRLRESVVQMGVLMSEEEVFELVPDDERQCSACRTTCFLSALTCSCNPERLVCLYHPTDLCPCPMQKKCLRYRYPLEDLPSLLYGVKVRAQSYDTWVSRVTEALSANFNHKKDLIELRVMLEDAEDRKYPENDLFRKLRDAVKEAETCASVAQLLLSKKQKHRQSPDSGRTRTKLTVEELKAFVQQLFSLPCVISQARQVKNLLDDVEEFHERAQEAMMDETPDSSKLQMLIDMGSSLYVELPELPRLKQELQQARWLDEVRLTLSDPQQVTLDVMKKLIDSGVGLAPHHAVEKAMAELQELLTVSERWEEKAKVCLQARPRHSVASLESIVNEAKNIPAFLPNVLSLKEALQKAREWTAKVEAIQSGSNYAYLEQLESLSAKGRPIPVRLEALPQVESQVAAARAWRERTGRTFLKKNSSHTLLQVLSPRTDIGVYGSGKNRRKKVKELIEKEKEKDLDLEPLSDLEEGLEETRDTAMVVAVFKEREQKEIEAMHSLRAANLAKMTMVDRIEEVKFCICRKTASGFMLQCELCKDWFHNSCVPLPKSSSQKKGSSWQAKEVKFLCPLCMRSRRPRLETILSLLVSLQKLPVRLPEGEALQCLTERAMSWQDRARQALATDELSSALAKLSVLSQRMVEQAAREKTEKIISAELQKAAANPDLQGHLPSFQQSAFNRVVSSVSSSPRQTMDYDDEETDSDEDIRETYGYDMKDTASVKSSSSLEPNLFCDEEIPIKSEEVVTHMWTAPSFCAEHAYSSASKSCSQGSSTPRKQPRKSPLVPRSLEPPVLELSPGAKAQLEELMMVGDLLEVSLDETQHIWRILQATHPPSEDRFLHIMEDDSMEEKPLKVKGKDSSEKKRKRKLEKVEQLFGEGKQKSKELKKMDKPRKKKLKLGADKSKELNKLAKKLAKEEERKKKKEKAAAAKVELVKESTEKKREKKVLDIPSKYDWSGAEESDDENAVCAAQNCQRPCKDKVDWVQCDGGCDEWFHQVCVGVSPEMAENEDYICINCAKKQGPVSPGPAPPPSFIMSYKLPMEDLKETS

Regarding `Nc1c(C(=O)O)ccnc1C(=O)O` [Example 7, reference compound], the half-maximal inhibitory concentration (IC50) amounted to 64 nM in data set [1]; 510 nM in data set [2]; 1200 nM in data set [3]; 110 nM in data set [5]; 540 nM in data set [6]; 700 nM in data set [7]. This compound also gave a CC50 in data set [4] of no less than 100000 nM.
Consider `CCOC(=O)c1ccnc(CNCC(=O)N(CC)CCN(C)C)c1` [Example 8], for which the CC50 in data set [4] came out at 28200 nM.
As to `CCN(CCN(C)C)C(=O)CNCc1cc(C(=O)O)ccn1` [Example 9], the half-maximal inhibitory concentration (IC50) came out at 35 nM in data set [1]; 14 nM in data set [2]; 24 nM in data set [3]; 57 nM in data set [5]; 26 nM in data set [6]; 66 nM in data set [7]. Also, in data set [4], the CC50 was no less than 50000 nM.
Take `Cc1cc(Cl)ccc1COc1ccnn1-c1cc(C(=O)O)ccn1` [Example 11]: the concentration for half-maximal inhibition (IC50) in data set [1] is 110 nM; in data set [2], 36 nM; in data set [3] it was 28 nM; in data set [5], 110 nM; in data set [6], 270 nM; in data set [7] it was 98 nM. This compound yielded a CC50 in data set [4] of no less than 50000 nM.
Regarding `O=C(O)c1ccncc1Nc1nn(CCN2CCC(F)(F)CC2)c2ccc(F)cc12` [Example 13], the IC50 in data set [1] was 670 nM; in data set [2], 21 nM; in data set [3] it was 21 nM; in data set [5] it was 260 nM; in data set [6], 86 nM; in data set [7] it was 65 nM. In addition, in data set [4], the CC50 is no less than 50000 nM.
With `N#CNC(=O)c1ccncc1Nc1nn(CCN2CCC(F)(F)CC2)c2ccc(F)cc12` [Example 14], the IC50 in data set [1] was 2300 nM; in data set [2], 14 nM; in data set [3], 29 nM; in data set [5], 3100 nM; in data set [6] it was 240 nM; in data set [7] it was 85 nM. This compound yielded a CC50 in data set [4] of no less than 50000 nM.
As to `CCN(CC)CCCCNCc1cc(C(=O)O)ccn1` [Example 18], the IC50 stood at 1200 nM in data set [1]; 3.1 nM in data set [2]; 11 nM in data set [3]; 350 nM in data set [5]; 21 nM in data set [6]; 33 nM in data set [7].
